# Where a SMILES comes first, the peptide text is derived from it. Where no end group is shown, it is not given here. The star is where a group is joined. For = O=C*
# T1: human FPR1 (Homo sapiens, UniProt P21462)
# T1 construct: expressed in transfected cells
# T1 sequence (P21462 1-350): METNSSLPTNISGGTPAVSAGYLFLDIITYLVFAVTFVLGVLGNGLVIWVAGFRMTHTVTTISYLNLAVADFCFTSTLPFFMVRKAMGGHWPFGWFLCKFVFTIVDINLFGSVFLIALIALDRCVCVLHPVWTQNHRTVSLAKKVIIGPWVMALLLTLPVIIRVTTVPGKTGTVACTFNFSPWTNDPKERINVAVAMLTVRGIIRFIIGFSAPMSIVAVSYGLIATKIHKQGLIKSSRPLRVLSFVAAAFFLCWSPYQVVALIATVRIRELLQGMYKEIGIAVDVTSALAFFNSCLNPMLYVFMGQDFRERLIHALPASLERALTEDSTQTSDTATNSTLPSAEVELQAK
# Columns and labels:
# human FPR1 [1] = target: T1, human FPR1; assay: cell-based
# human FPR1 [2] = target: T1, human FPR1; assay: HTRF-based quantification of MAPK/ERK phosphorylation (ERK1/2 Thr202/Tyr204); type: cell-based; conditions: HeLa-FPR1 cells serum-starved 2 h, agonist 5 min, 37 °C, HTRF phospho-ERK1/2, four-parameter fit, Hill 1, mean and SEM, at least 5 independent measurements; for EC50: read-out: ERK1/2 Activation logEC50 (converted)
# human FPR1 [3] = target: T1, human FPR1; assay: Flow cytometric analysis of agonist-induced receptor internalization; type: cell-based; conditions: HeLa-FPR1 cells; for EC50: agonist 15 min, 37 °C, flow cytometry of surface FLAG-FPR1 (M1 antibody), mean and SEM, 6 independent measurements, NR = no response, read-out: Internalization logEC50 (converted)
# [4] = solvent DMSO; as indicated by the manufacturer; ref manufacturer; cited from earlier work
# [5] = target: human formyl peptide receptor 1 (FPR1), N-terminally FLAG-tagged (human) (UniProt P21462)
Molecule,EC50 (human FPR1 [1]) [nM],EC50 (human FPR1 [2]) [nM],"EmaxA of inhibition of forskolin-induced cAMP formation, HeLa-FPR1 cells (HTRF, 30 min; normalised to forskolin) (fraction of the maximum system response) [5]","logEC50 of inhibition of forskolin-induced cAMP formation, HeLa-FPR1 cells (HTRF, 30 min) (log M (unit not given)) [5]",other results
CC[C@H](C)[C@H](NC(=O)[C@H](Cc1ccccc1)NC(=O)[C@H](Cc1c[nH]c2ccccc12)NC(=O)[C@H](C)NC(=O)[C@H](CCC(N)=O)NC(=O)[C@H](CCCCN)NC(=O)[C@H](CC(C)C)NC(=O)[C@H](Cc1ccccc1)NC(=O)[C@H](CCC(=O)O)NC(=O)[C@H](CO)NC(=O)[C@@H](NC(=O)[C@H](CCSC)NC(=O)[C@H](C)NC(C)=O)C(C)C)C(=O)N[C@@H](CCC(=O)O)C(=O)N[C@@H](CC(N)=O)C(=O)N[C@@H](CCC(=O)O)C(=O)N[C@@H](CCC(=O)O)C(=O)N[C@@H](CCC(N)=O)C(=O)N[C@@H](CCC(=O)O)C(=O)N[C@@H](Cc1ccc(O)cc1)C(=O)N[C@H](C(=O)N[C@@H](CCC(N)=O)C(=O)N[C@H](C(=O)N[C@H](C(=O)N[C@@H](CCCCN)C(=O)O)C(C)C)[C@@H](C)O)C(C)C [Ac2-26] (Ac-AMVSEFLKQAWFIENEEQEYVQTVK-OH),49000,74100,–,–,–
CC[C@H](C)[C@H](NC(=O)[C@H](CC(C)C)NC(=O)[C@H](CCCCN)NC(=O)[C@H](CCSC)NC(=O)[C@H](CC(C)C)NC(=O)[C@@H]1CCCN1C(=O)[C@H](CC(N)=O)NC(=O)[C@@H](NC(=O)[C@H](CCCCN)NC(=O)[C@H](CCCNC(=N)N)NC(=O)[C@H](CCSC)NC(=O)[C@@H]1CCCN1C(=O)[C@@H](NC(=O)[C@H](CCSC)NC=O)[C@@H](C)O)[C@@H](C)O)C(=O)N[C@@H](CC(N)=O)C(=O)O [CYTB] (For-MTPMRKTNPLMKLIN-OH),3020,7760,–,–,–
COc1cc(/C=N/NC(=O)c2ccc3c(c2)OCO3)ccc1OCc1ccccc1 [FPRA14],–,–,–,–,"agonist-induced FPR1 internalization (decrease of cell surface-associated FPR1 pool), in words (human FPR1 [3]; 15 min after agonist addition, flow cytometry): did not elicit detectable internalization; cAMP Formation logEC50 (human FPR1 [1]; HeLa-FPR1 cells, 5 µM forskolin + 500 µM IBMX with agonist, 30 min, 37 °C, HTRF, […], mean and SEM, at least 7 independent measurements): −5.94 0.19; Solubility [4]: 100 mM; ERK1/2 Activation logEC50 (human FPR1 [2]): −6.06 0.05"
CSCC[C@H](NC=O)C(=O)N[C@@H](CC(N)=O)C(=O)N1CCC[C@H]1C(=O)N[C@@H](CC(C)C)C(=O)N[C@@H](C)C(=O)N[C@@H](CCC(N)=O)C(=O)O [MT-ND2] (For-MNPLAQ-OH),2040,6170,–,–,–
CSCC[C@H](NC=O)C(=O)N[C@@H](CCSC)C(=O)N[C@@H](Cc1ccc(O)cc1)C(=O)N[C@@H](C)C(=O)N[C@@H](CC(C)C)C(=O)N[C@@H](Cc1ccccc1)C(=O)O [MT-ND6] (For-MMYALF-OH),74.1,2.19,–,–,EC50 (human FPR1 [3]): 776 nM
CC[C@H](C)[C@H](NC(=O)[C@H](CCSC)NC=O)C(=O)N[C@H](C(=O)N[C@H](C(=O)N[C@@H](CC(C)C)C(=O)O)[C@@H](C)CC)C(C)C [fMIVIL] (For-MIVIL-OH),0.871,1.55,–,–,EC50 (human FPR1 [3]): 79.4 nM
"CSCC[C@H](NC=O)C(=O)N[C@@H](CC(C)C)C(=O)N[C@@H](Cc1ccccc1)C(=O)O [fMLF, formyl-methionyl-leucyl-phenylalanine]",–,–,–,–,Solubility [4]: 4000 µg/mL
CC(C)C[C@H](NC(=O)CN)C(=O)N[C@@H](CC(C)C)C(=O)N[C@@H](Cc1c[nH]c2ccccc12)C(=O)N[C@H](C(=O)N[C@@H](CCC(=O)O)C(=O)N[C@H](C(=O)NCC(=O)NCC(=O)N[C@@H](CCC(=O)O)C(=O)NCC(=O)N1CCC[C@H]1C(=O)NCC(=O)N1CCC[C@H]1C(=O)N[C@H](C(=O)O)[C@@H](C)O)C(C)C)C(C)C [gG2p20] (H-GLLWVEVGGEGPGPT-OH),–,708,–,–,"EC50 (human FPR1 [1]; HeLa-FPR1 cells, 5 µM forskolin + 500 µM IBMX with agonist, 30 min, 37 °C, HTRF, […], mean and SEM, at least 7 independent measurements, read-out: cAMP Formation logEC50 (converted)): 437 nM; Solubility [4]: 2000 µg/mL"
WKYMVM [synthetic agonist W-peptide (WKYMVm)],–,–,0.82,-8.96,"EmaxA of agonist-induced FPR1 internalization, HeLa-FPR1 cells (flow cytometry, 15 min; normalised to 10^-4 M W-peptide) (fraction of the maximum system response) [5]: 1; logEC50 of agonist-induced FPR1 internalization, HeLa-FPR1 cells (flow cytometry, 15 min) (log M (unit not given)) [5]: -7.66"
For-MTPMRKTNPLMKLIN [formylated peptide corresponding to the N-terminus of human cytochrome b (CYTB; f…)],–,–,0.39,-5.52,–
For-MNPLAQ,–,–,0.63,-5.69,–
For-MMYALF,–,–,0.66,-7.13,"EmaxA of agonist-induced FPR1 internalization, HeLa-FPR1 cells (flow cytometry, 15 min; normalised to 10^-4 M W-peptide) (fraction of the maximum system response) [5]: 0.63; logEC50 of agonist-induced FPR1 internalization, HeLa-FPR1 cells (flow cytometry, 15 min) (log M (unit not given)) [5]: -6.11"
For-MIVIL [formylated pentapeptide fMIVIL from Listeria monocytogenes],–,–,0.82,-9.06,"EmaxA of agonist-induced FPR1 internalization, HeLa-FPR1 cells (flow cytometry, 15 min; normalised to 10^-4 M W-peptide) (fraction of the maximum system response) [5]: 0.97; logEC50 of agonist-induced FPR1 internalization, HeLa-FPR1 cells (flow cytometry, 15 min) (log M (unit not given)) [5]: -7.1"
GLLWVEVGGEGPGPT (not fully specified) [gG-2p20 peptide derived from the secreted glycoprotein sgG-2 of herpes simplex virus type 2 (HSV-2)],–,–,0.68,-6.36,–
Ac-AMVSEFLKQAWFIENEEQEYVQTVK [acetylated peptide Ac2-26 corresponding to the N-terminus of human annexin A1],–,–,0.63,-4.31,–
